Experimental data published in the supplement of paper PMC4862054.
Where “and” joins values, the source holds several entries; their conditions need not be identical. Equal values may be shown once.

How the values were obtained:
Settings in all cases: incubation time: 72 h
Hs578T [1] = experiment: drug sensitivity score (DSS), CellTiter-Glo (DSS (AUC-based score)); higher = stronger drug effect (viability inhibition or cytotoxicity); extreme values may be limits of the assay
Procedure, shortened: (§1)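 Plates with 384 wells held compound at 5 concentrations in 10-fold steps over a 10,000-fold range specific to each compound. Breast cancer cell lines were added in 20 µl suspension and incubated 72 h, then read for CellTox Green and CellTiter-Glo signals, with each plate normalised to 0.1 % DMSO and a positive kill control. The drug sensitivity score is based on the area under the fitted dose-response curve.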

CAL-120 [2] = experiment: as above
Procedure, shortened: as §1

BT-549 = experiment: as above
Procedure, shortened: as §1

BT-474 = experiment: as above
Procedure, shortened: as §1

MDA-MB-453 = experiment: as above
Procedure, shortened: as §1

MDA-MB-468 [3] = experiment: as above
Procedure, shortened: as §1

HDQ-P1 [4] = experiment: as above
Procedure, shortened: as §1

MDA-MB-436 = experiment: as above
Procedure, shortened: as §1

HCC1599 = experiment: as above
Procedure, shortened: as §1

HCC1937 = experiment: as above
Procedure, shortened: as §1

CAL-148 = experiment: as above
Procedure, shortened: as §1

HCC1143 = experiment: as above
Procedure, shortened: as §1

CAL-51 = experiment: as above
Procedure, shortened: as §1

MDA-MB-231 = experiment: as above
Procedure, shortened: as §1

SK-BR-3 [5] = experiment: as above
Procedure, shortened: as §1

MCF-10A = experiment: as above
Procedure, shortened: as §1

DU-4475 [6] = experiment: as above
Procedure, shortened: as §1

CAL-85-1 [7] = experiment: as above
Procedure, shortened: as §1

MFM-223 [8] = experiment: as above
Procedure, shortened: as §1

Hs578T [9] = experiment: normalised viability (% of control), CellTiter-Blue; higher = more viable cells (about 100 = DMSO control)
Procedure, shortened: (§2)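 Compound dissolved in 5 µl medium was pre-loaded into 384-well plates, and breast cancer cell lines in 20 µl suspension were seeded on top and incubated 72 h. After adding 2.5 µl CellTiter-Blue reagent for 2 h at 37 °C, fluorescence was read at 560/590 nm. Plates were normalised to vehicle (100) and a positive kill control (0), with Z'-factor quality control. Each value is normalised viability at a single listed concentration from the series.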

CAL-120 [10] = experiment: as above
Procedure, shortened: as §2

MDA-MB-468 [11] = experiment: as above
Procedure, shortened: as §2

HDQ-P1 [12] = experiment: as above
Procedure, shortened: as §2

SK-BR-3 [13] = experiment: as above
Procedure, shortened: as §2

DU-4475 [14] = experiment: as above
Procedure, shortened: as §2

CAL-85-1 [15] = experiment: as above
Procedure, shortened: as §2

MFM-223 [16] = experiment: as above
Procedure, shortened: as §2

SMILES | drug sensitivity score (Hs578T [1]) | drug sensitivity score (CAL-120 [2]) | drug sensitivity score (BT-549) | drug sensitivity score (BT-474) | drug sensitivity score (MDA-MB-453) | drug sensitivity score (MDA-MB-468 [3]) | drug sensitivity score (HDQ-P1 [4]) | drug sensitivity score (MDA-MB-436) | drug sensitivity score (HCC1599) | drug sensitivity score (HCC1937) | drug sensitivity score (CAL-148) | drug sensitivity score (HCC1143) | drug sensitivity score (CAL-51) | drug sensitivity score (MDA-MB-231) | drug sensitivity score (SK-BR-3 [5]) | drug sensitivity score (MCF-10A) | drug sensitivity score (DU-4475 [6]) | drug sensitivity score (CAL-85-1 [7]) | drug sensitivity score (MFM-223 [8]) | normalised viability (Hs578T [9]; 10 nM) | normalised viability (CAL-120 [10]; 10 nM) | normalised viability (MDA-MB-468 [11]; 10 nM) | normalised viability (HDQ-P1 [12]; 3 nM) | normalised viability (SK-BR-3 [13]; 10 nM) | normalised viability (DU-4475 [14]; 3 nM) | normalised viability (CAL-85-1 [15]; 3 nM) | normalised viability (MFM-223 [16]; 10 nM) | normalised viability (Hs578T [9]; 1 nM) [%] | normalised viability (CAL-120 [10]; 1 nM) [%] | normalised viability (MDA-MB-468 [11]; 1 nM) [%] | normalised viability (HDQ-P1 [12]; 0.3 nM) [%] | normalised viability (SK-BR-3 [13]; 1 nM) [%] | normalised viability (DU-4475 [14]; 0.3 nM) [%] | normalised viability (CAL-85-1 [15]; 0.3 nM) [%] | normalised viability (MFM-223 [16]; 1 nM) [%]
Cc1ccc(NC(=O)c2ccc(CN3CCN(C)CC3)cc2)cc1Nc1nccc(-c2cccnc2)n1 [Imatinib] | 0 | 0 | 0 | 0 | 0.32 | 0 | 0 | 0 | 0 | 0 | 0 | 0 | 1.42 | 0 | 0 | 0 | 0 | 0 | 0 | 106% and 119% | 81.6% and 90.2% | 95.9% and 102% | 132% and 110% | 97.5% and 99.9% | 92.2% and 97.2% | 91.5% and 91.4% | 95.9% and 112% | – | – | – | – | – | – | – | –
C/C(=C\c1csc(C)n1)[C@@H]1C[C@@H]2O[C@]2(C)CCC[C@H](C)[C@H](O)[C@@H](C)C(=O)C(C)(C)[C@@H](O)CC(=O)O1 [Patupilone] | 12.7 | 5.48 | 20.5 | 5.69 | 5.87 | 18.2 | 4.83 | 15 | 2.26 | 0.309 | 10.2 | 13.5 | 19.1 | 6.83 | 15.1 | 8.33 | 6.14 | 16.3 | 3.26 | – | – | – | – | – | – | – | – | 102 | 109 | 96 | 107 | 112 | 90.2 | 95.2 | 105
CNNCc1ccc(C(=O)NC(C)C)cc1 [Procarbazine] | 0 | 0 | 0 | 0 | 0 | 0 | 0 | 0 | 0 | 0 | 0 | 0 | 0 | 0 | 0 | 0 | 0 | 0 | 0 | 105% | 104% | 105% | 146% | 110% | 90.7% | 95.6% | 98.4% | – | – | – | – | – | – | – | –
CN(C)C[C@@H]1CCn2cc(c3ccccc32)C2=C(C(=O)NC2=O)c2cn(c3ccccc23)CCO1 [Ruboxistaurin] | 0 | 0 | 6.4 | 7 | 6.05 | 8.68 | 4.6 | 6.47 | 0 | 3.65 | 8.61 | 3 | 6.02 | 6.63 | 7.58 | 3.64 | 3.25 | 5.13 | 4.27 | 96.4% | 108% | 94.5% | 79.3% | 101% | 113% | 105% | 97.6% | – | – | – | – | – | – | – | –
